Experimental data from patent publication US8192962B2, “Processes for detecting toxic substances” (Daikin Industries, Ltd., priority 2001, dated 2012).

Tested on: Mitochondria-located protein genes
Assay: DNA chip mRNA expression in yeast, mitochondria-located protein genes (Table 2)
Assay type: cell-based, Saccharomyces cerevisiae S288C
Conditions: cells incubated two hours with the chemical substance
How it was run: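 Chemical exposure: 2 h, log-phase S. cerevisiae S288C, YPD, 25° C., dose set to inhibit growth without death. Profiling: mRNA labeled by reverse transcription with Cy3- or Cy5-dUTP, hybridized to whole-genome array. Output: fluorescence ratio against untreated culture.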

CCCCCCCCCCCCOS(=O)(=O)[O-].[Na+] [(18), sodium lauryl sulfate]
The level of expressed mRNA in the presence of chemical substance/The level of expressed mRNA in the absence of chemical substance (yeast gene YAL039C): 1.1
The level of expressed mRNA in the presence of chemical substance/The level of expressed mRNA in the absence of chemical substance (yeast gene YBL022C): 0.7
The level of expressed mRNA in the presence of chemical substance/The level of expressed mRNA in the absence of chemical substance (yeast gene YBL030C): 1.1
The level of expressed mRNA in the presence of chemical substance/The level of expressed mRNA in the absence of chemical substance (yeast gene YBL038W): 1.9
The level of expressed mRNA in the presence of chemical substance/The level of expressed mRNA in the absence of chemical substance (yeast gene YBL099W): 1.2
The level of expressed mRNA in the presence of chemical substance/The level of expressed mRNA in the absence of chemical substance (yeast gene YBR003W): 1.3
The level of expressed mRNA in the presence of chemical substance/The level of expressed mRNA in the absence of chemical substance (yeast gene YBR044C): 1.3
The level of expressed mRNA in the presence of chemical substance/The level of expressed mRNA in the absence of chemical substance (yeast gene YBR091C): 1.0
The level of expressed mRNA in the presence of chemical substance/The level of expressed mRNA in the absence of chemical substance (yeast gene YBR122C): 1.5
The level of expressed mRNA in the presence of chemical substance/The level of expressed mRNA in the absence of chemical substance (yeast gene YBR185C): 1.3
The level of expressed mRNA in the presence of chemical substance/The level of expressed mRNA in the absence of chemical substance (yeast gene YBR221C): 1.0
The level of expressed mRNA in the presence of chemical substance/The level of expressed mRNA in the absence of chemical substance (yeast gene YBR251W): 1.4
The level of expressed mRNA in the presence of chemical substance/The level of expressed mRNA in the absence of chemical substance (yeast gene YBR282W): 1.2
The level of expressed mRNA in the presence of chemical substance/The level of expressed mRNA in the absence of chemical substance (yeast gene YCL057W): 1.1
The level of expressed mRNA in the presence of chemical substance/The level of expressed mRNA in the absence of chemical substance (yeast gene YCR046C): 1.0
The level of expressed mRNA in the presence of chemical substance/The level of expressed mRNA in the absence of chemical substance (yeast gene YCR083W): 1.3
The level of expressed mRNA in the presence of chemical substance/The level of expressed mRNA in the absence of chemical substance (yeast gene YDL067C): 1.7
The level of expressed mRNA in the presence of chemical substance/The level of expressed mRNA in the absence of chemical substance (yeast gene YDL181W): 1.4
The level of expressed mRNA in the presence of chemical substance/The level of expressed mRNA in the absence of chemical substance (yeast gene YDL198C): 1.1
The level of expressed mRNA in the presence of chemical substance/The level of expressed mRNA in the absence of chemical substance (yeast gene YDR079W): 1.3
The level of expressed mRNA in the presence of chemical substance/The level of expressed mRNA in the absence of chemical substance (yeast gene YDR178W): 2.3
The level of expressed mRNA in the presence of chemical substance/The level of expressed mRNA in the absence of chemical substance (yeast gene YDR231C): 1.3
The level of expressed mRNA in the presence of chemical substance/The level of expressed mRNA in the absence of chemical substance (yeast gene YDR258C): 1.3
The level of expressed mRNA in the presence of chemical substance/The level of expressed mRNA in the absence of chemical substance (yeast gene YDR298C): 1.6
The level of expressed mRNA in the presence of chemical substance/The level of expressed mRNA in the absence of chemical substance (yeast gene YDR347W): 1.2
The level of expressed mRNA in the presence of chemical substance/The level of expressed mRNA in the absence of chemical substance (yeast gene YDR377W): 2.5
The level of expressed mRNA in the presence of chemical substance/The level of expressed mRNA in the absence of chemical substance (yeast gene YDR529C): 2.3
The level of expressed mRNA in the presence of chemical substance/The level of expressed mRNA in the absence of chemical substance (yeast gene YEL024W): 1.5
The level of expressed mRNA in the presence of chemical substance/The level of expressed mRNA in the absence of chemical substance (yeast gene YEL039C): 1.1
The level of expressed mRNA in the presence of chemical substance/The level of expressed mRNA in the absence of chemical substance (yeast gene YER178W): 0.9
The level of expressed mRNA in the presence of chemical substance/The level of expressed mRNA in the absence of chemical substance (yeast gene YFL016C): 0.9
The level of expressed mRNA in the presence of chemical substance/The level of expressed mRNA in the absence of chemical substance (yeast gene YGL018C): 1.0
The level of expressed mRNA in the presence of chemical substance/The level of expressed mRNA in the absence of chemical substance (yeast gene YGL187C): 2.4
The level of expressed mRNA in the presence of chemical substance/The level of expressed mRNA in the absence of chemical substance (yeast gene YGL191W): 1.7
The level of expressed mRNA in the presence of chemical substance/The level of expressed mRNA in the absence of chemical substance (yeast gene YGR008C): 4.2
The level of expressed mRNA in the presence of chemical substance/The level of expressed mRNA in the absence of chemical substance (yeast gene YGR028W): 2.6
The level of expressed mRNA in the presence of chemical substance/The level of expressed mRNA in the absence of chemical substance (yeast gene YGR062C): 1.1
The level of expressed mRNA in the presence of chemical substance/The level of expressed mRNA in the absence of chemical substance (yeast gene YGR076C): 1.5
The level of expressed mRNA in the presence of chemical substance/The level of expressed mRNA in the absence of chemical substance (yeast gene YGR082W): 0.8
The level of expressed mRNA in the presence of chemical substance/The level of expressed mRNA in the absence of chemical substance (yeast gene YGR174C): 2.3
The level of expressed mRNA in the presence of chemical substance/The level of expressed mRNA in the absence of chemical substance (yeast gene YGR244C): 3.1
The level of expressed mRNA in the presence of chemical substance/The level of expressed mRNA in the absence of chemical substance (yeast gene YHR008C): 1.0
The level of expressed mRNA in the presence of chemical substance/The level of expressed mRNA in the absence of chemical substance (yeast gene YIL155C): 1.4
The level of expressed mRNA in the presence of chemical substance/The level of expressed mRNA in the absence of chemical substance (yeast gene YJL096W): 1.2
The level of expressed mRNA in the presence of chemical substance/The level of expressed mRNA in the absence of chemical substance (yeast gene YJL102W): 1.1
The level of expressed mRNA in the presence of chemical substance/The level of expressed mRNA in the absence of chemical substance (yeast gene YJL133W): 0.7
The level of expressed mRNA in the presence of chemical substance/The level of expressed mRNA in the absence of chemical substance (yeast gene YJL166W): 4.0
The level of expressed mRNA in the presence of chemical substance/The level of expressed mRNA in the absence of chemical substance (yeast gene YJL180C): 1.4
The level of expressed mRNA in the presence of chemical substance/The level of expressed mRNA in the absence of chemical substance (yeast gene YJR045C): 0.9
The level of expressed mRNA in the presence of chemical substance/The level of expressed mRNA in the absence of chemical substance (yeast gene YJR077C): 0.8
